Experimental data as given in patent US20100173888A1 (Pfizer Inc, priority 2008, published 2010).

target: human recombinant H-PGDS (Homo sapiens, UniProt O60760); assay: Fluorescence intensity h-PGDS TBA enzyme assay (PGH2 depletion, MDA/TBA fluorescence); format: biochemical; settings: 1:175,000 human recombinant H-PGDS, 42 second reaction, 3-fold serial dilutions, highest concentration typically 1 μM
Method: Fluoresecence Intensity h-PGDSTBA Enzyme Assay
Prostaglandin D Synthase (PGDS) converts the substrate prostaglandin H2 (PGH2) to prostaglandin D2. The depletion of PGH2 was measured via an Fe(II) reduction of the remaining PGH2 to malondialdehyde (MDA) and 12-HHT. The enzyme assay is based on the quantitative formation of a fluorescent complex from the non-fluorescent compounds MDA and 2-thiobarbituric acid (TBA), substantially as described in U.S. patent application publication US-2004/152148 by Lombardt.
The enzyme assay (31 μls) contained 100 mM Tris base pH 8.0, 100 μM MgCl2, 0.1 mg/ml IgG Rabbit serum, 5.0 μM PGH2 (Cayman; ethanol solution, #17020), 2.5 mM L-Glutathione (Sigma; reduced form. #G4251), 1:175,000 human recombinant H-PGDS (from 1 mg/ml), 0.5% DMSO and inhibitor (varying concentration). Three μls of diluted inhibitor (dissolved in DMSO) was plated into a 384-well assay plate followed by a 25 μl addition of an enzyme solution containing h-PGDS, Tris, MgCl2, IgG and L-Glutathione. After preincubation of inhibitor and enzyme solution for 10 minutes at room temperature, the reaction was initiated with a 3 μl addition of substrate solution in 10 mM HCl. The reaction was terminated after 42 second by the addition (3 μl) of stop buffer containing FeCl2 and citric acid. After addition of 45.5 μls of TBA plates were heated for one hour in a 70° C. oven. Plates were cooled at room temperature overnight and read on a plate reader the next day with excitation @ 530 nm and emission @ 565 nm.
IC50' s of inhibitors were calculated with a 4-parameter fit using 11 inhibitor concentrations in duplicate with 3-fold serial dilutions. Controls on each plate included no inhibitor (zero % effect) and an inhibitor 10-fold in excess of its' IC50 (100% effect). The highest inhibitor concentration tested was typically 1 μM.

Chain of human recombinant H-PGDS (O60760 whole entry): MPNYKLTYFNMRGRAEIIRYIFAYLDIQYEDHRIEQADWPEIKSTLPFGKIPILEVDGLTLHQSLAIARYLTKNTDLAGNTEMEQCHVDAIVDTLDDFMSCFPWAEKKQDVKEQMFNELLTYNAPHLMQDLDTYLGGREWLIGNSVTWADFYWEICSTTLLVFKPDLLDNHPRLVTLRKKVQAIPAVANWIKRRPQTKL

| SMILES | IC50 |
| --- | --- |
| CS(=O)(=O)N[C@H]1CCC[C@H](NC(=O)c2ccc(-c3cccc(F)c3)nc2)C1 (relative stereo) [Example 249, 6-(3-Fluoro-phenyl)-N-trans-(3-methanesulfonylamino-cyclohexyl)-nicotinamide] | 0.0139 µM |
| O=C(N[C@H]1CCC[C@H](CO)C1)c1ccc(-c2cccc(F)c2)nc1 (relative stereo) [Example 250] | 0.0264 µM |
| O=C(N[C@@H]1CCC[C@H](CO)C1)c1ccc(-c2cccc(F)c2)nc1 (relative stereo) [Example 251A] | 0.0133 µM |
| COCC(=O)NC[C@H]1CCC[C@@H](NC(=O)c2ccc(-c3cccc(F)c3)nc2)C1 (relative stereo) [Example 252] | 0.0171 µM |
| CN(C)CC(=O)NC[C@H]1CCC[C@@H](NC(=O)c2ccc(-c3cccc(F)c3)nc2)C1 (relative stereo) [Example 253] | 0.0509 µM |
| Cn1nccc1C(=O)NC[C@H]1CCC[C@@H](NC(=O)c2ccc(-c3cccc(F)c3)nc2)C1 (relative stereo) [Example 255] | 0.0123 µM |
| CC(=O)N1CC(NC[C@H]2CCC[C@@H](NC(=O)c3ccc(-c4cccc(F)c4)nc3)C2)C1 (relative stereo) [Example 257] | 0.0345 µM |
| O=C(N[C@@H]1CCC[C@H](CN2CCC2)C1)c1ccc(-c2cccc(F)c2)nc1 (relative stereo) [Example 258] | 0.0292 µM |
| CC(C)(O)[C@@H]1CCC[C@H](NC(=O)c2ccc(-c3cccc(F)c3)nc2)C1 (relative stereo) [Example 262] | 0.081 µM |
| O=C(N[C@H]1CCC[C@@H](NC(=O)N2CCOCC2)C1)c1ccc(-c2cccc(F)c2)nc1 (relative stereo) [Example 267] | 0.011 µM |
| CN1CCN(C(=O)N[C@@H]2CCC[C@H](NC(=O)c3ccc(-c4cccc(F)c4)nc3)C2)CC1 (relative stereo) [Example 268, N-(cis-3-({[6-(3-Fluorophenyl)pyridine-3-yl]carbonyl}amino)cyclohexyl]-4-methylpiperazine-1-carboxamide] | 0.0246 µM |
| CN(C(=O)[C@@H]1CCC[C@H](NC(=O)c2ccc(-c3cccc(F)c3)nc2)C1)C1CCNCC1 (stereo in doubt) [Example 192, 6-(3-Fluorophenyl)-N-{(1S,3R)-3-[methyl(piperidin-4-yl)carbamoyl]cyclohexyl}nicotinamide] | 0.0153 µM |
| CN[C@H]1CC[C@H](NC(=O)[C@@H]2CCC[C@H](NC(=O)c3ccc(-c4cccc(F)c4)nc3)C2)CC1 (stereo in doubt) [Example 193, 6-(3-Fluorophenyl)-N-[(1S,3R)-3-{[trans-4-(methylamino)cyclohexyl]carbamoyl}cyclohexyl]nicotinamide] | 0.0102 µM |
| CC(C)(O)CNC(=O)[C@@H]1CCC[C@H](NC(=O)c2ccc(-c3cccc(F)c3)nc2)C1 (stereo in doubt) [Example 195, 6-(3-Fluorophenyl)-N-{(1S,3R)-3-[(2-hydroxy-2-methylpropyl)carbamoyl]cyclohexyl}nicotinamide] | 0.0118 µM |
| O=C(N[C@H]1CCC[C@@H](CN2CC(O)C2)C1)c1ccc(-c2cccc(F)c2)nc1 (stereo in doubt) [Example 256, 6-(3-Fluorophenyl)-N-{(1S,3R)-3-[(3-hydroxyazetidin-1-yl)methyl]cyclohexyl}nicotinamide] | 0.0441 µM |
| O=C(NC1(c2ccccn2)CC1)c1ccc(-c2cccc(F)c2)nc1 [Example 1, 6-(3-Fluorophenyl)-N-(1-pyridin-2-ylcyclopropyl)nicotinamide] | 0.0649 µM |
| COC(=O)C1(NC(=O)c2ccc(-c3cccc(F)c3)nc2)CC1 [Example 2, Methyl 1-({[6-(3-fluorophenyl)pyridin-3-yl]carbonyl}amino)cyclopropanecarboxylate] | 0.319 µM |
| COC(=O)C1(NC(=O)c2ccc(-c3cccc(C)c3)nc2)CC1 [Example 3, Methyl 1-({[6-(3-methylphenyl)pyridin-3-yl]carbonyl}amino)cyclopropanecarboxylate] | 0.246 µM |
